Reference: ChEMBL document CHEMBL1240338, “BIBF 1120: triple angiokinase inhibitor with sustained receptor blockade and good antitumor efficacy” (Cancer Res, 2008)

Tests used:
[1] = molecular target: Cyclin-dependent kinase 2 (Homo sapiens, UniProt P24941); assay: Inhibition of human CDK2
HUVEC [2] = assay: Antiangiogenic activity in HUVEC assessed as inhibition of VEGF-induced cell proliferation by [3H]thymidine incorporation assay; format: functional, cell-based; conditions: Homo sapiens
HUVEC [3] = assay: Antiangiogenic activity in HUVEC assessed as inhibition of bFGF-induced cell proliferation by [3H]thymidine incorporation assay; format: functional, cell-based; conditions: Homo sapiens
[4] = Antiangiogenic activity in HSMEC assessed as inhibition of VEGF-induced cell proliferation by [3H]thymidine incorporation assay; format: functional; conditions: Homo sapiens
[5] = Antiangiogenic activity in BRP assessed as inhibition of PDGF BB-induced cell proliferation by [3H]thymidine incorporation assay; format: functional; conditions: Bos taurus
[6] = Antiangiogenic activity in HUASMC assessed as inhibition of PDGF BB-induced cell proliferation by [3H]thymidine incorporation assay; format: functional; conditions: Homo sapiens
FaDu [7] = assay: Antiangiogenic activity in human FADU assessed as inhibition of cell proliferation by [3H]thymidine incorporation assay in presence of fetal calf serum; format: functional, cell-based
Calu-6 = assay: Antiangiogenic activity in human Calu6 assessed as inhibition of cell proliferation by [3H]thymidine incorporation assay in presence of fetal calf serum; format: functional, cell-based
HeLa = assay: Antiangiogenic activity in human HeLa assessed as inhibition of cell proliferation by [3H]thymidine incorporation assay in presence of fetal calf serum; format: functional, cell-based
HUVEC [8] = assay: Antiangiogenic activity in HUVEC assessed as inhibition of VEGF-induced apoptosis by [3H]thymidine incorporation assay; format: functional, cell-based; conditions: Homo sapiens
[9] = Antiangiogenic activity in HSMEC assessed as inhibition of VEGF-induced apoptosis by [3H]thymidine incorporation assay; format: functional, Homo sapiens
HUVEC [10] = assay: Induction of apoptosis in HUVEC at 50 nM by TUNEL assay (reference value: 2%); format: cell-based; conditions: human, 0.05 µM
Mus musculus [11] = assay: Toxicity in human FADU cells xenografted in NMRI nu/nu mouse assessed mortality at 100 mg/kg, po qd for 5 days; format: organism-based; parameters: dose 100 mg/kg, route oral; conditions: in vivo, 120 h
Mus musculus [12] = assay: Toxicity in human FADU cells xenografted in NMRI nu/nu mouse assessed weight loss at 100 mg/kg, po qd for 5 days; format: organism-based; parameters: dose 100 mg/kg, route oral; conditions: in vivo, 120 h
FaDu [13] = assay: Antitumor activity against human FADU cells xenografted in NMRI nu/nu mouse assessed as inhibition of tumor growth at 50 mg/kg, po qd for 2 days relative to control; format: functional
[14] = Plasma concentration in NMRI nu/nu mouse at 50 mg/kg, po after 1 hr; format: ADME, organism-based; parameters: dose 50 mg/kg, route oral
[15] = Trough plasma concentration in NMRI nu/nu mouse at 50 mg/kg, po after 24 hrs; format: ADME, organism-based; parameters: dose 50 mg/kg, route oral
FaDu [16] = assay: Antitumor activity against human FADU cells xenografted in NMRI nu/nu mouse assessed as tumor growth at 50 mg/kg, po qd for 5 days relative to control
FaDu [17] = assay: Antitumor activity against human FADU cells xenografted in NMRI nu/nu mouse assessed as tumor growth at 25 mg/kg, po qd for 5 days relative to control
FaDu [18] = assay: Antitumor activity against human FADU cells xenografted in NMRI nu/nu mouse assessed as tumor growth at 10 mg/kg, po qd for 5 days relative to control
FaDu [19] = assay: Antitumor activity against human FADU cells xenografted in NMRI nu/nu mouse assessed as tumor growth at 100 mg/kg, po qd for 5 days relative to control
CAKI-1 [20] = assay: Antitumor activity against human Caki1 cells xenografted in NMRI nu/nu mouse assessed as tumor growth at 50 mg/kg, po qd for 5 days relative to control
CAKI-1 [21] = assay: Antitumor activity against human Caki1 cells xenografted in NMRI nu/nu mouse assessed as tumor growth at 10 mg/kg, po qd for 5 days relative to control
CAKI-1 [22] = assay: Antitumor activity against human Caki1 cells xenografted in NMRI nu/nu mouse assessed as tumor growth at 100 mg/kg, po qd for 5 days relative to control
[23] = Antitumor activity against rat GS-9L cells implanted in syngeneic F344 Fischer rat assessed as inhibition of tumor growth at 50 mg/kg, po qd for 5 days relative to control
[24] = Antitumor activity against rat GS-9L cells implanted in syngeneic F344 Fischer rat assessed as inhibition of tumor growth at 25 mg/kg, po qd for 5 days relative to control
[25] = Antitumor activity against rat GS-9L cells implanted in syngeneic F344 Fischer rat assessed as inhibition of tumor growth at 10 mg/kg, po qd for 5 days relative to control
FaDu [26] = assay: Antitumor activity against human FADU cells xenografted in NMRI nu/nu mouse assessed as reduction of tumor vessel density at 100 mg/kg, po qd for 5 days by Meca 32 immunohistochemistry image analysis relative to control; parameters: scale not given: the % may be the effect or the level left
FaDu [27] = assay: Antitumor activity against human FADU cells xenografted in NMRI nu/nu mouse assessed as reduction of PDGFR-beta-positive mural cells at 100 mg/kg, po qd for 5 days by PDGFR-beta immunohistochemistry image analysis relative to control; parameters: scale not given: the % may be the effect or the level left

SMILES: COC(=O)c1ccc2c(c1)NC(=O)/C2=C(\Nc1ccc(N(C)C(=O)CN2CCN(C)CC2)cc1)c1ccccc1 [NINTEDANIB]
- IC50 [1]: > 10000 nM
- EC50 (HUVEC [2]): 9 nM
- EC50 (HUVEC [3]): 290 nM
- EC50 [4]: 7 nM
- EC50 [5]: 79 nM
- EC50 [6]: 69 nM
- EC50 (FaDu [7]): > 4500 nM
- EC50 (Calu-6): > 3500 nM
- EC50 (HeLa): > 3500 nM
- EC50 (HUVEC [8]): < 10 nM
- EC50 [9]: < 10 nM
- Activity (HUVEC [10]): 28%
- Activity (Mus musculus [11]): Non-toxic
- Activity (Mus musculus [12]): Non-toxic
- T/C (FaDu [13]): 15%
- concentration at 1 h [14]: 1000 nM
- concentration at 24 h [15]: < 8 nM
- T/C (FaDu [16]): 27%
- T/C (FaDu [17]): 46%
- T/C (FaDu [18]): 82%
- T/C (FaDu [19]): 11%
- T/C (CAKI-1 [20]): 25%
- T/C (CAKI-1 [21]): 71%
- T/C (CAKI-1 [22]): 16%
- T/C [23]: 30%
- T/C [24]: 45%
- T/C [25]: 74%
- Activity (FaDu [26]): 76%
- Activity (FaDu [27]): 64%
